From article PMC8306930, “A Comparative Analysis of the In Vitro Anticancer Activity of Iridium(III) {η^5-C5Me4R} Complexes with Variable R Groups” (International Journal of Molecular Sciences, 2021)

Tests used:
C6 rat glioma cells [1] = assay: CV viability assay, C6; type: cell-based; details: C6, 72 h exposure, mean ± SD
Text: (§1) The rat astrocytoma C6 cell line and murine melanoma B16 cell line were kindly gifted by Dr. L. Harhaji–Trajkovic, Institute for Biological Research “Sinisa Stankovic”—National Institute of Republic of Serbia (IBISS), and from Dr. Sinisa Radulovic (Institute for Oncology and Radiology of Serbia), respectively. Human colorectal (SW620 and HCT116), breast (MCF-7), and ovarian (A2780) cancer cell lines and non-malignant fibroblast cell line (MRC5) were purchased from the American Type Culture Collection (ATCC, Manassas, Virginia, USA). […] For viability assays, cells were seeded in listed densities/well: B16 and C6: 3 × 10^3; SW620: 9 × 10^3; A2780 and HCT116: 5 × 10^3; MCF-7: 8 × 10^3 and MRC5: 7 × 10^3. For flow cytometry, A2780 cells were seeded at 2 × 10^5 density/well in 6-well plates. Peritoneal macrophages were collected from the peritoneal cavity of C57BL/6 mice from the animal facility of IBISS by cavity lavage with ice-cold PBS. […] Macrophages were counted, seeded at 2 × 10^5 cells/well in 96-well plates for viability assay, and then left for 2 h to adhere. Before treatment, non-adherent cells were removed. The handling of animals and protocol for obtaining macrophages is in the agreement with the rules of the European Union and approved by the Institutional Animal Care and Use Committee at IBISS (No. 02-09/16).
(§2) Stock solutions of 1b, 1c, 1d, and 1e were prepared in ethanol at concentration of 20 mM and kept at −20 °C, while 10 mM stock solution of cisplatin was prepared in DMF just before the usage. Desired final concentrations were obtained by dilution in culture medium.
(§3) Cells were treated with various concentrations (up to 50 or 100 µM) of the above-mentioned complexes for 72 h. For the detection of mitochondrial respiration, cells were cultivated in the presence of MTT staining solution (0.5 mg/mL) for approximately 1 h at 37 °C. The dye was then discarded, and the formed formazan crystals (purple) were dissolved in DMSO. For an evaluation of viable attached cells, cells were fixed with 4% PFA for 10 min at room temperature, and subsequently stained for 15 min with 0.02% CV solution. […] The absorbance was measured with an automated microplate reader at 540 nm, with a reference wavelength of 670 nm. The IC50 values were calculated using a four-parameter logistic function and presented as mean ± SD from three independent experiments.

[2] = test system: SW620 human colorectal adenocarcinoma cells; assay: CV viability assay, SW620; type: cell-based; details: SW620, 72 h exposure, mean ± SD
Text: as §1, §2, §3

[3] = test system: MRC5 human fibroblast cells; assay: CV viability assay, MRC5; type: cell-based; details: MRC5, 72 h exposure, mean ± SD
Text: as §1, §2, §3

[4] = test system: HCT116 human colorectal carcinoma cells; assay: CV viability assay, HCT116; type: cell-based; details: HCT116, 72 h exposure, mean ± SD
Text: as §1, §2, §3

B16 mouse melanoma cells [5] = assay: CV (crystal violet) viability assay, B16; type: cell-based; details: B16, 72 h exposure, mean ± SD
Text: as §1, §2, §3

[6] = test system: A2780 human ovarian cancer cells; assay: CV viability assay, A2780; type: cell-based; details: A2780, 72 h exposure, mean ± SD
Text: as §1, §2, §3

[7] = test system: SW620 human colorectal adenocarcinoma cells; assay: MTT viability assay, SW620; type: cell-based; details: SW620, 72 h exposure, mean ± SD
Text: as §1, §2, §3

[8] = test system: HCT116 human colorectal carcinoma cells; assay: MTT viability assay, HCT116; type: cell-based; details: HCT116, 72 h exposure, mean ± SD
Text: as §1, §2, §3

[9] = Stability in D2O mixtures by 1H NMR; type: physicochemical; details: DMSO-d6/D2O 2:1, 72 h at 37 °C, 1H NMR, dimethyl sulfone standard
Procedure: Complexes were dissolved in acetone-d6/D2O 2:1 (1b,d), DMSO-d6/D2O 2:1 (2a–d and 3), or methanol-d4/D2O 2:1 (1c) ([Ir] ≈ 10^−3 mol L^−1), then dimethyl sulfone (0.05 mL, 0.164 mmol) was added as internal standard. The mixtures were filtered through a celite pad, and the filtrated solutions were analyzed by ^1H NMR spectroscopy.
The solutions were then stored for 72 h at 37 °C, and new NMR analyses were subsequently performed.

[10] = Stability in RPMI-1640 cell culture medium by UV-Vis; type: physicochemical; details: 37 °C, 24 h
B16 mouse melanoma cells [11] = assay: MTT viability assay, B16; type: cell-based; details: B16, 72 h exposure, mean ± SD
Text: as §1, §2, §3

[12] = test system: MCF-7 human breast cancer cells; assay: CV viability assay, MCF-7; type: cell-based; details: MCF-7, 72 h exposure, mean ± SD
Text: as §1, §2, §3

[13] = test system: MCF-7 human breast cancer cells; assay: MTT viability assay, MCF-7; type: cell-based; details: MCF-7, 72 h exposure, mean ± SD
Text: as §1, §2, §3

[14] = Octanol/water partition coefficient, shake-flask method with UV-Vis; details: 21 °C, mean ± standard deviation
Procedure: (a) Octanol/water partition coefficients (Log Pow). Partition coefficients (Pow; IUPAC: KD partition constant), defined as Pow = corg/caq, where corg and caq are molar concentrations of the selected compound in the organic and aqueous phase, respectively, were determined by the shake-flask method and UV-Vis measurements. Deionized water and 1-octanol were vigorously stirred for 24 h, to enable saturation of both phases, then separated by centrifugation. A stock solution of the selected iridium compound (ca. 2 mg) was prepared by first adding acetone (50 μL, to help solubilization), followed by water-saturated octanol (2.5 mL). The solution was diluted with water-saturated octanol (ca. 1:3 v/v ratio, cIr ≈ 10^−4 M, so that 1.5 ≤ A ≤ 2.0 at λmax) and its UV-Vis spectrum was recorded (A^0org). An aliquot of the solution (Vorg = 1.2 mL) was transferred into a test tube and octanol-saturated water (Vorg = Vaq = 1.2 mL) was added. The mixture was vigorously stirred for 30 min at 21 °C then centrifuged (5000 rpm, 5 min). The UV-Vis spectrum of the organic phase was recorded (A^forg) and the partition coefficient was calculated as Pow = A^forg/(A^0org − A^forg) where A^0org and A^forg are the absorbance in the organic phase before and after partition with the aqueous phase, respectively. The wavelength of the maximum absorption of each compound (ca. 300 nm) was used for UV-Vis quantitation.

[15] = test system: A2780 human ovarian cancer cells; assay: MTT viability assay, A2780; type: cell-based; details: A2780, 72 h exposure, mean ± SD
Text: as §1, §2, §3

[16] = test system: MRC5 human fibroblast cells; assay: MTT viability assay, MRC5; type: cell-based; details: MRC5, 72 h exposure, mean ± SD
Text: as §1, §2, §3

C6 rat glioma cells [17] = assay: MTT viability assay, C6; type: cell-based; details: C6, 72 h exposure, mean ± SD
Text: as §1, §2, §3

A2780 cells [18] = assay: Intracellular nitric oxide, DAF-FM flow cytometry; type: cell-based, human; details: A2780, IC50 doses, 48 h, with respect to untreated cultures
Procedure: (§4) Experiments were carried out in three independent replicates.

A2780 cells [19] = assay: ROS/RNS, DHR123 flow cytometry; type: cell-based, human; details: A2780, IC50 doses, 48 h, DHR123, with respect to untreated cultures
Procedure: as §4

A2780 cells [20] = assay: Autophagosomes, acridine orange flow cytometry; type: cell-based, human; details: A2780, IC50 doses, 48 h, AO
Procedure: as §4

A2780 cells [21] = assay: Senescence, FDG assay of beta galactosidase activity, flow cytometry; type: cell-based, human; details: A2780, IC50 doses, 48 h, in comparison to the control
Procedure: as §4

A2780 cells [22] = details: A2780, IC50 doses, 48 h, AnnV/PI
Procedure: as §4

A2780 cells [23] = assay: Mitochondrial membrane potential, DiOC6(3) flow cytometry; type: cell-based, human; details: A2780, IC50 doses, 24 h, in comparison with untreated cells
Procedure: as §4

A2780 cells [24] = assay: Cell proliferation, CFSE flow cytometry; type: cell-based, human; details: A2780, IC50 doses, 72 h of incubation
Procedure: as §4

[25] = test system: primary mouse peritoneal cells; assay: Viability of primary mouse peritoneal cells (macrophages); type: cell-based
Text: The rat astrocytoma C6 cell line and murine melanoma B16 cell line were kindly gifted by Dr. L. Harhaji–Trajkovic, Institute for Biological Research “Sinisa Stankovic”—National Institute of Republic of Serbia (IBISS), and from Dr. Sinisa Radulovic (Institute for Oncology and Radiology of Serbia), respectively. Human colorectal (SW620 and HCT116), breast (MCF-7), and ovarian (A2780) cancer cell lines and non-malignant fibroblast cell line (MRC5) were purchased from the American Type Culture Collection (ATCC, Manassas, Virginia, USA). […] For viability assays, cells were seeded in listed densities/well: B16 and C6: 3 × 10^3; SW620: 9 × 10^3; A2780 and HCT116: 5 × 10^3; MCF-7: 8 × 10^3 and MRC5: 7 × 10^3. For flow cytometry, A2780 cells were seeded at 2 × 10^5 density/well in 6-well plates. […] Macrophages were counted, seeded at 2 × 10^5 cells/well in 96-well plates for viability assay, and then left for 2 h to adhere. […]
Cells were treated with various concentrations (up to 50 or 100 µM) of the above-mentioned complexes for 72 h. […] The absorbance was measured with an automated microplate reader at 540 nm, with a reference wavelength of 670 nm. The IC50 values were calculated using a four-parameter logistic function and presented as mean ± SD from three independent experiments.

Molecule | IC50 (C6 rat glioma cells [1]) [µM] | IC50 [2] [µM] | IC50 [3] [µM] | IC50 [4] [µM] | IC50 (B16 mouse melanoma cells [5]) [µM] | IC50 [6] [µM] | IC50 [7] [µM] | IC50 [8] [µM] | Fraction of unaltered compound [9] [%] | Stability in RPMI-1640 cell culture medium [10] | IC50 (B16 mouse melanoma cells [11]) [µM] | IC50 [12] [µM] | IC50 [13] [µM] | Log Pow [14] | IC50 [15] [µM] | IC50 [16] [µM] | IC50 (C6 rat glioma cells [17]) [µM] | Increase of intracellular level of NO (A2780 cells [18]) [%] | Increase of intracellular levels of H2O2, HOCl and ONOO− (in total) (A2780 cells [19]) [%] | High percentage of autophagosomes (A2780 cells [20]) | further results
CCC[c-]1c(C)c(C)c(C)c1C.[Cl-].[Ir+3].[c-]1ccccc1-c1ccccn1 [Complex 2c, (1-(propyl)-2,3,4,5-tetramethylcyclopentadienyl)(2-phenylpyridine)iridium(III)chloride] | 5.9 ± 0.5 | 12.4 ± 1.5 | 2.7 ± 0.1 | 13 ± 1.1 | 8 ± 2 | 7.2 ± 0.8 | 10.4 ± 0.4 | 8 ± 0.6 | 98 | did not change | 6.7 ± 0.6 | 17.2 ± 0.1 | 12 ± 1.3 | 1.5 ± 0.2 | 7.3 ± 0.6 | 3.7 ± 0.2 | 4 ± 0.3 | – | – | – | –
Cc1c(C)c(C)[c-](-c2ccc(F)cc2)c1C.[Cl-].[Ir+3].[c-]1ccccc1-c1ccccn1 [Complex 2d, (1-(4-fluorobenzene)-2,3,4,5-tetramethylcyclopentadienyl)(2-phenylpyridine)iridium(III)chloride] | 2.1 ± 0.1 | 2 ± 0.2 | 2.1 ± 0.6 | 5.3 ± 1.3 | 1.7 ± 0.4 | 1.8 ± 0.1 | 2 ± 0.1 | 1.3 ± 0.3 | 97 | did not change | 1.2 ± 0.2 | 6.8 ± 0.7 | 2.5 ± 0.2 | 1.3 ± 0.2 | 1.3 ± 0.1 | 2.4 ± 0.3 | 2 ± 0.01 | 38 | 36.3 | not recognized | Increase of beta galactosidase activity (A2780 cells [21]): 31%; Induction of apoptotic cell death (A2780 cells [22]): modest induction; Mitochondrial membrane hyperpolarization (A2780 cells [23]): 48.6%; Effect on cell proliferation (A2780 cells [24]): inhibition of cell proliferation; Effect on viability of primary mouse peritoneal cells [25]: did not affect viability
tetramethylcyclopentadienyl)(2-phenylpyridine)iridium(III)chloride [Complex 2b] | 2.6 ± 0.1 | 2.9 ± 0.5 | 6 ± 2 | 7 ± 2 | 3 ± 0.1 | 4.4 ± 0.6 | 2.6 ± 0.1 | 8 ± 0.2 | – | – | 2.5 ± 0.2 | 37 ± 3 | 8.6 ± 0.2 | – | 5.5 ± 0.5 | 6.7 ± 0.2 | 2.4 ± 0.3 | 40.9 | 46.4 | not recognized | Increase of beta galactosidase activity (A2780 cells [21]): 38.4%; Induction of apoptotic cell death (A2780 cells [22]): modest induction; Mitochondrial membrane hyperpolarization (A2780 cells [23]): 32.3%; Effect on cell proliferation (A2780 cells [24]): inhibition of cell proliferation; Effect on viability of primary mouse peritoneal cells [25]: did not affect viability
